Values joined by “and” are separate entries in the source; they are usually repeats but may differ in a detail not shown here. Identical values can stand only once. Numbers after ± are expanded uncertainties.
Settings: Liquid; for Critical pressure: Direct measurement; for Critical temperature: Visual observation in an unstirred cell

COCC(F)(F)C(F)(F)C(F)(F)F [1,1,1,2,2,3,3-heptafluoro-4-methoxybutane]
Settings | Critical density [kg/m3] | Critical pressure [kPa] | Critical temperature [K] | vapor or sublimation pressure [kPa]
– | 497 ± 2 | 2381 ± 9 | 481.54 ± 0.17 | –
291.65 K | – | – | – | 12.1 ± 1
302.31 K | – | – | – | 20.4 ± 1
312.43 K | – | – | – | 32.3 ± 1
322.64 K | – | – | – | 48.9 ± 1
332.66 K | – | – | – | 71.5 ± 1
337.71 K | – | – | – | 85.4 ± 1
342.7 K | – | – | – | 101.2 ± 1
347.73 K | – | – | – | 119.2 ± 1.1
362.74 K | – | – | – | 189.2 ± 1.2
372.75 K | – | – | – | 250.2 ± 1.3
382.82 K | – | – | – | 326.6 ± 1.4
392.85 K | – | – | – | 419.6 ± 1.6
402.88 K | – | – | – | 531.3 ± 1.9
412.9 K | – | – | – | 664.3 ± 2.2
422.92 K | – | – | – | 820.3 ± 2.6
432.95 K | – | – | – | 1004.6 ± 3.2
442.98 K | – | – | – | 1216.4 ± 3.9
453 K | – | – | – | 1462.9 ± 4.7
463.01 K | – | – | – | 1746.1 ± 5.6
473.05 K | – | – | – | 2071.1 ± 6.7
478.44 K | – | – | – | 2266.3 ± 7.3
481.5 K | – | – | – | 2382.5 ± 7.6
481.66 K | – | – | – | 2389.1 ± 7.7

FC(F)COC(F)(F)C(F)F [1,1,2,2-tetrafluoro-2-(2,2-difluoroethoxy)ethane]
Settings | Critical density [kg/m3] | Critical pressure [kPa] | Critical temperature [K] | vapor or sublimation pressure [kPa]
– | 520 ± 2 | 3090 ± 9 | 501.08 ± 0.08 | –
300.91 K | – | – | – | 12.8 ± 1
322.65 K | – | – | – | 33.9 ± 1
332.67 K | – | – | – | 50.8 ± 1
342.69 K | – | – | – | 75 ± 1
352.73 K | – | – | – | 106.1 ± 1.1
362.73 K | – | – | – | 147.5 ± 1.1
372.78 K | – | – | – | 202.5 ± 1.2
382.8 K | – | – | – | 268.1 ± 1.3
392.83 K | – | – | – | 351.4 ± 1.4
402.87 K | – | – | – | 453.5 ± 1.6
412.89 K | – | – | – | 576.7 ± 1.9
422.92 K | – | – | – | 723.9 ± 2.3
432.95 K | – | – | – | 898.2 ± 2.8
442.97 K | – | – | – | 1102.4 ± 3.4
453 K | – | – | – | 1341.6 ± 4.2
463.02 K | – | – | – | 1615.4 ± 5
473.05 K | – | – | – | 1931 ± 6
482.09 K | – | – | – | 2256.7 ± 7
491.9 K | – | – | – | 2658.1 ± 8.3
497.81 K | – | – | – | 2932.7 ± 9.1
501.3 K | – | – | – | 3101.6 ± 9.7

FC(F)(F)COCC(F)(F)F [1,1,1-trifluoro-2-(2,2,2-trifluoroethoxy)ethane]
Settings | Critical density [kg/m3] | Critical pressure [kPa] | Critical temperature [K] | vapor or sublimation pressure
– | 500 ± 2 | 2783 ± 5 | 476.31 ± 0.09 | –
293.4 K | – | – | – | 18 ± 1 kPa
293.59 K | – | – | – | 18.2 ± 1 kPa
303.09 K | – | – | – | 27.9 ± 1 kPa
303.12 K | – | – | – | 28 ± 1 kPa
313.12 K | – | – | – | 42.6 ± 1 kPa
313.14 K | – | – | – | 42.8 ± 1 kPa
323.15 K | – | – | – | 63.3 ± 1 kPa
323.17 K | – | – | – | 63.4 ± 1 kPa
333.2 K | – | – | – | 91.3 ± 1 kPa and 91.4 ± 1 kPa
338.22 K | – | – | – | 109 ± 1.1 kPa
343.24 K | – | – | – | 129.2 ± 1.1 kPa
353.27 K | – | – | – | 178.3 ± 1.1 kPa
353.28 K | – | – | – | 178.3 ± 1.1 kPa
363.31 K | – | – | – | 241.1 ± 1.2 kPa
373.34 K | – | – | – | 320 ± 1.4 kPa
373.35 K | – | – | – | 320.1 ± 1.4 kPa
383.38 K | – | – | – | 417.4 ± 1.6 kPa and 417.3 ± 1.6 kPa
393.43 K | – | – | – | 536.2 ± 1.8 kPa and 536.3 ± 1.8 kPa

Source: the NIST ThermoML archive (doi:10.1021/je0201976)
